The values that follow come from patent US9067944B2, “Process for the preparation of anagrelide and analogues thereof” (SHIRE LLC, priority 2010, dated 2015).

Read-outs that look alike come from different tables or passages of the source.

For data set [1] the following is noted: solid form; cited from earlier work.
For data set [2] the following is noted: radiolabeled base, humans; cited from earlier work.
For data set [3] the following is noted: radiolabeled base, monkeys; cited from earlier work.
Data set [4] in a line: solubility of the tosylate salt. Conditions: crystalline tosylate salt. The data set is classed as physicochemical.

On to `O=C1CN2Cc3c(ccc(Cl)c3Cl)N=C2N1` [compound III, 6,7-dichloro-1,5-dihydroimidazo[2,1-b]quinazolin 2 (3H)-one], for which the aqueous solubility entry in data set [1] is given as “low”. For the same compound, the “absorption into blood plasma” value in data set [2] and in data set [3] was “complete absorption” in each case.

As to `CC1(C)C(=O)NC2=Nc3ccc(Cl)c(Cl)c3CN21.Cc1ccc(S(=O)(=O)O)cc1` [3,3-dimethylanagrelide tosylate, 3,3-Dimethylanagrelide Tosylate], the solubility entry in data set [4] was “soluble”.
